≈ marks a conversion by molar mass, not a printed value.
Assays:
Assay type in all cases: cell-based
[1] = test system: membrane permeabilized E. coli; details: for enhancement of the activity of ciprofloxacin: at 25 μM
E. coli wild-type = test system: E. coli wild-type
[2] = test system: E. coli strain MG1655 and mutated strains; assay: microbe, parasite or virus in culture
[3] = test system: E. coli MG1655 loss of function strains; assay: microbe, parasite or virus in culture
E. coli ΔrecB strains = test system: E. coli ΔrecB strains
[4] = test system: P. aeruginosa strains RTC1014-RTC1019
[5] = test system: E. coli strains RTC0141-RTC0148

Nc1ccc2noc3c2c1C(=O)c1ccccc1-3 [Formula Ia]
MIC shift in ciprofloxacin responsiveness [1]: 10 ×

NCCCCCCNc1ccnc2cc(Cl)ccc12 [Formula III]
ciprofloxacin sensitization [1]: enhanced ciprofloxacin sensitivity

Cn1c2ccccc2n2c3ncccc3c(=O)c(C#N)c12 [Formula IIb]
enhancement of the activity of ciprofloxacin [1]: enhanced the activity of ciprofloxacin

O=C(O)c1cn(C2CC2)c2cc(N3CCNCC3)c(F)cc2c1=O [ciprofloxacin]
cells killed (E. coli wild-type): 99% | ciprofloxacin MIC, gyrA S83Δ [2]: 0.25 µg/mL | MIC ([2]; Escherichia coli, MG1655, read-out: ciprofloxacin MIC): < 0.001 µg/mL | ciprofloxacin MIC, gyrA S83Δ [3]: 0.25 µg/mL | MIC ([3]; Escherichia coli, MG1655, read-out: ciprofloxacin MIC, gyrA S83L): 0.45 µg/mL (≈ 1.36 µM)

CO[C@@]12[C@H](COC(N)=O)C3=C(C(=O)C(C)=C(N)C3=O)N1C[C@@H]1N[C@@H]12 [Mitomycin C]
Mitomycin C MIC lower compared to recB+ strains (E. coli ΔrecB strains): about 8 fold

Cn1c2ccccc2n2c3cnccc3c(=O)c(C#N)c12 [Formula IIc]
enhancement of the activity of ciprofloxacin [1]: enhanced the activity of ciprofloxacin

B1: lambda gam: protein used by λ phage to inhibit E. coli RecB; overexpressed from an arabinose-inducible vector (protein, UniProt P03702 1-138, looked up)
Host-nuclease inhibitor …: MDINTETEIKQKHSLTPFPVFLISPAFRGRYFHSYFRSSAMNAYYIQDRLEAQSWARHYQQLAREEKEAELADDMEKGLPQHLFESLCIDHLQRHGASKKSITRAFDDDVEFQERMAEHIRYMVETIAHHQVDIDSEV
decrease in the ciprofloxacin MIC on overexpression of lambda gam [4]: 2-4 fold | effect of lambda gam overexpression on ciprofloxacin sensitivity [4]: no effect | decrease in the ciprofloxacin IC50 on overexpression of lambda gam [5]: 5-8 fold | effect of lambda gam overexpression on ciprofloxacin sensitivity [5]: no effect
